Values joined by “and” are separate entries in the source; they are usually repeats but may differ in a detail not shown here. Identical values can stand only once. “Also recorded” adds a separate entry of the source.
Tests used:
[1] = tested on: normal fat cells grown in culture; assay: Lipid stored in cultured fat cells (Oil red O staining); format: cell-based; conditions: normal fat cells (adipocytes) grown in culture, also cardiac cells
Excerpt: Such studies can be conducted using Oil red 0 staining for lipids.
To this end at least a portion of a mammal or tissue can be treated with a kinase inhibitor such that the amount of lipid in the cells is reduced. Any suitable kinase inhibitor can be used. Methods for determining suitable inhibitors are well known. For example, samples of adipocytes can be grown in the presence and absence of a kinase inhibitor and stained with Oil red 0 by known methods to determine whether the kinase inhibitor causes a reduction in stored fat. […] Exemplary kinase inhibitors that are suitable for the invention include erbB inhibitors, especially including GW2974, GW572016, and the like. […] Au565 cells were grown under normal conditions known in the art and treated for 2 days with GW2974 (25 μM). The cells were collected, washed and sonicated in water (2,000,000 cells in 200 μL of water). The cells were spun down and were tested for acylcamitines (byproducts of mitochondrial fatty acid oxidation) by MS/MS for intraceullar metabolites.

Au565 cells [2] = assay: Microarray mRNA expression profile of Au565 cells treated with GW2974; format: cell-based, human; conditions: GW2974 25 μM vs untreated
Protocol: Au565 cells were grown under normal conditions and were untreated or treated with GW2974 (25 μM). Cells were pelleted, snap frozen in liquid nitrogen and subjected to microarray analysis. RNA was isolated using the Agilent Total RNA Isolation Kit. Cy3 and Cy5 labeled cRNA was prepared using the Agilent Low RNA Input Fluorescent Linear Amplification Kit. Labeled cRNAs were hybridized to a G4110A Human 1A(V2) microarray consisting of 60-mer oligonucleotides representing over 18K well-characterized, full length, human genes.

Au565 cells [3] = assay: Acylcarnitines (byproducts of mitochondrial fatty acid oxidation) by MS/MS in treated Au565 cells; format: cell-based; conditions: Au565 cell pellet, GW2974 25 μM, 2 days
Excerpt: In addition, tyrosine kinase inhibitors can be used to reduce fat in cells, particularly cells that are otherwise normal or that lack protein tyrosine kinase activity mediated disease. To this end at least a portion of a mammal or tissue can be treated with a kinase inhibitor such that the amount of lipid in the cells is reduced. Any suitable kinase inhibitor can be used. Methods for determining suitable inhibitors are well known. For example, samples of adipocytes can be grown in the presence and absence of a kinase inhibitor and stained with Oil red 0 by known methods to determine whether the kinase inhibitor causes a reduction in stored fat. Those kinase inhibitors that cause an observable reduction in fat storage are suitable for the present invention. Exemplary kinase inhibitors that are suitable for the invention include erbB inhibitors, especially including GW2974, GW572016, and the like. […] Au565 cells were grown under normal conditions known in the art and treated for 2 days with GW2974 (25 μM). The cells were collected, washed and sonicated in water (2,000,000 cells in 200 μL of water). The cells were spun down and were tested for acylcamitines (byproducts of mitochondrial fatty acid oxidation) by MS/MS for intraceullar metabolites.

cardiomyocytes cells = assay: ERRα and MCAD in cardiomyocytes treated with kinase inhibitors; format: cell-based; conditions: FIG. 8
Excerpt: FIG. 8 is a photograph of ERRα and MCAD in cardiomyocytes cells with and without treatment by various kinase inhibitors.
ERRα plays a role in lipid metabolism in cardiac cells, and MCAD is an enzyme that breaks down lipids and fatty acids. Mutations in MCAD is a common genetic disorder, especially in those of northern European descent.

[4] = tested on: HER2-expressing human cardiomyocytes; assay: AMPK activation, ATP production and TNFα-induced apoptosis in cardiomyocytes; format: cell-based
Au565 cells [5] = assay: Oil red lipid staining of Au565 cells; format: cell-based; conditions: FIG. 2 and FIG. 3
Au565 cells [6] = assay: Western blot for p-eEF-2; format: cell-based; conditions: FIG. 7A
Excerpt: FIG. 7A a photograph of a Western Blot showing the affect of certain tyrosine kinase inhibitors on expression p-eEF2 and p-AMPKα.
(§1) This can be seen in MDA-MB-468 breast cancer cells where calcium is detected by fluorescently by Fluoro-4. This redistribution of calcium results in the activation and phosphorylation of AMPK. Activated AMPK represses translation by phosphorylation of the translation factor eEF-2 (FIG. 7), which inactivates eEF-2 and represses protein synthesis, a known effect of TKIs.

[7] = tested on: MDA-MB-468 breast cancer cells; assay: Intracellular calcium detected by Fluoro-4; format: cell-based; conditions: MDA-MB-468 cells, Fluoro-4, FIG. 6
Excerpt: FIG. 6 are photographs of MDA-MB-468 cells treated by GW-2974 and intracellular Ca detected by Fluoro-4.
as §1

Au565 cells [8] = assay: p-eEF-2 expression by IHC; format: cell-based; conditions: FIG. 7B
Excerpt: FIG. 7B is a photograph of stained cells showing the expression of p-eEF2 in Au565 cells in the presence of various compounds.

[9] = tested on: primary human cardiac myocytes; assay: Lipid staining of cardiomyocytes; format: cell-based; conditions: FIG. 4
Excerpt: FIG. 4 are photographs of primary human cardiac myocytes grown under various conditions and stained for lipids.
FIG. 5 is a bar graph illustrating the percentage of human cardiomyocytes testing positive for lipids under various conditions.

Structure (SMILES): CN(C)c1cc2c(Nc3ccc4c(cnn4Cc4ccccc4)c3)ncnc2cn1 [GW2974]
- lipid stored within fat cells [1]: rapidly disappears; also recorded: lose lipid
- ACAT2: GW2974 change compared to control (Au565 cells [2]): −5.3
- AKAP5: GW2974 change compared to control (Au565 cells [2]): −7.3x
- AVIL: GW2974 change compared to control (Au565 cells [2]): 4.2x
- BBOX1: GW2974 change compared to control (Au565 cells [2]): 5.1
- CAMK4: GW2974 change compared to control (Au565 cells [2]): 4.5x
- CASK: GW2974 change compared to control (Au565 cells [2]): −4.2x
- CCR2: GW2974 change compared to control (Au565 cells [2]): −5.0x
- CD38: GW2974 change compared to control (Au565 cells [2]): −4.4x
- CLCA1: GW2974 change compared to control (Au565 cells [2]): −6.7x
- CLSP: GW2974 change compared to control (Au565 cells [2]): −4.0x
- CYP2C8: GW2974 change compared to control (Au565 cells [2]): 4.5x
- ELOVL2: GW2974 change compared to control (Au565 cells [2]): −4.4x
- FABP1: GW2974 change compared to control (Au565 cells [2]): −7.2
- FASN: GW2974 change compared to control (Au565 cells [2]): −4.3x
- FKSG14: GW2974 change compared to control (Au565 cells [2]): −4.6x
- FLJ12476: GW2974 change compared to control (Au565 cells [2]): 5.0x
- FREQ: GW2974 change compared to control (Au565 cells [2]): −5.3x
- GLS: GW2974 change compared to control (Au565 cells [2]): 5.1
- GNB5: GW2974 change compared to control (Au565 cells [2]): −4.1x
- GSTT2: GW2974 change compared to control (Au565 cells [2]): −5.3
- HPCAL1: GW2974 change compared to control (Au565 cells [2]): −4.5x
- HSPA8: GW2974 change compared to control (Au565 cells [2]): −4.2x
- LDLR: GW2974 change compared to control (Au565 cells [2]): −5.2x
- NRXN3: GW2974 change compared to control (Au565 cells [2]): 4.58x and 4.6x
- PFKL: GW2974 change compared to control (Au565 cells [2]): −4.7
- PRKG1: GW2974 change compared to control (Au565 cells [2]): 6.5x and 6.51x
- SAT: GW2974 change compared to control (Au565 cells [2]): 4.4
- SCN1A: GW2974 change compared to control (Au565 cells [2]): 4.1x
- SOAT1: GW2974 change compared to control (Au565 cells [2]): −4.0x
- STK33: GW2974 change compared to control (Au565 cells [2]): −5.3x
- TGFβ1: GW2974 change compared to control (Au565 cells [2]): 5.31x
- S100A9: GW2974 change compared to control (Au565 cells [2]; Table IV A): −5.5x
- S100A9: GW2974 change compared to control (Au565 cells [2]; Table IV C): −5.4
- Acylcarnitines C2 (Au565 cells [3]): 258.88 pmoles of protein
- Acylcarnitines C16 (Au565 cells [3]): 0.83 pmoles of protein
- Acylcarnitines C18:1 (Au565 cells [3]): 4.1 pmoles of protein
- MCAD expression (cardiomyocytes cells): completely absent
- AMPK activation [4]: can activate AMPK
- ATP production [4]: increases ATP production
- cardiomyocyte apoptosis / cell death induced by TNFα ([4]; TNFα): protecting against apoptosis induced by TNFα
- lipids in Au565 cells (oil red staining) (Au565 cells [5]): reduced
- p-eEF-2 by western blot (Au565 cells [6]): dramatically increased
- intracellular calcium distribution [7]: redistribution of intracellular calcium
- p-eEF-2 expression by IHC (Au565 cells [8]): do
- lipids in cardiomyocyte cells compared with untreated cells [9]: not decrease

Structure (SMILES): COc1cc2ncnc(Nc3ccc(F)c(Cl)c3)c2cc1OCCCN1CCOCC1 [Iressa]
- p-eEF-2 expression by IHC (Au565 cells [8]): do

Structure (SMILES): CS(=O)(=O)CCNCc1ccc(-c2ccc3ncnc(Nc4ccc(OCc5cccc(F)c5)c(Cl)c4)c3c2)o1 [lapatinib]
- lipid stored within fat cells [1]: loss of fat
- lipid stored within fat cells ([1]; listed as GW572016): rapidly disappears
